# How the values were obtained:
# Test in all cases: relative viability (nuclei count vs DMSO), 5 days (fraction); higher = more cells survive
# [1] = compound: COc1cccc2c1C(=O)c1c(O)c3c(c(O)c1C2=O)C[C@@](O)(C(=O)CO)C[C@@H]3O[C@H]1C[C@H](N)[C@H](O)[C@H](C)O1 [Doxorubicin] + N=C(N)NC(=N)NCCc1ccccc1 [Phenformin] (partner 250 µM)
# Outline: (§1)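 Relative viability divides the nuclei count in treated wells by that in vehicle wells. Lung cancer cell lines were seeded in 1536-well plates, dosed by pin tool the next day, and fixed and stained after 5 days in one step with final 0.05% Triton X-100, 1% formaldehyde and 1 ug/ml Hoechst. Dosing was a single drug or a fixed anchor-drug dose plus five library-drug doses (not always all listed) in √10 steps, and values are medians of duplicate plates imaged at 4×.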
# [2] = compound: COC1=C(C=C(C=C1)C2=CC3=NC=CN3C(=N2)NC4=C(C=CC=N4)C(=O)N)OC [BAY61-3606] + CC(=O)Nc1cccc(-n2c(=O)n(C3CC3)c(=O)c3c(Nc4ccc(I)cc4F)n(C)c(=O)c(C)c32)c1 [Trametinib] (partner 0.02 µM)
# Outline: as §1
# [3] = compound: COC1=C(C=C(C=C1)C2=CC3=NC=CN3C(=N2)NC4=C(C=CC=N4)C(=O)N)OC [BAY61-3606] + NC(=O)Nc1cc(-c2cccc(F)c2)sc1C(=O)N[C@H]1CCCNC1 [AZD7762] (partner 0.2 µM)
# Outline: as §1
# [4] = compound: COC1=C(C=C(C=C1)C2=CC3=NC=CN3C(=N2)NC4=C(C=CC=N4)C(=O)N)OC [BAY61-3606] + CS(=O)(=O)N1CCN(Cc2cc3nc(-c4cccc5[nH]ncc45)nc(N4CCOCC4)c3s2)CC1 [Pictilisib] (partner 1 µM)
# Outline: as §1
Cell Line,relative viability ([1]; first compound 0.001 µM),relative viability ([1]; first compound 0.003162 µM),relative viability ([1]; first compound 0.01 µM),relative viability ([1]; first compound 0.03162 µM),relative viability ([1]; first compound 0.1 µM),relative viability ([2]; first compound 0.02 µM),relative viability ([2]; first compound 0.6325 µM),relative viability ([2]; first compound 2 µM),relative viability ([3]; first compound 0.02 µM),relative viability ([3]; first compound 0.6325 µM),relative viability ([3]; first compound 2 µM),relative viability ([4]; first compound 0.02 µM),relative viability ([4]; first compound 0.06325 µM),relative viability ([4]; first compound 0.2 µM),relative viability ([4]; first compound 0.6325 µM),relative viability ([4]; first compound 2 µM),relative viability ([2]; first compound 0.06325 µM),relative viability ([2]; first compound 0.2 µM),relative viability ([3]; first compound 0.06325 µM),relative viability ([3]; first compound 0.2 µM)
SW 900,0.704,0.685,0.607,0.328,0.138,0.877,0.87,0.585,0.591,0.632,0.758,,,,,,,,,
NCI-H1563,0.618,0.573,0.546,0.524,0.501,,,,,,,0.621,0.579,0.731,0.654,0.653,,,,
NCI-H1648,,,,,,0.47,,0.512,0.723,,0.643,,,,,,0.466,0.546,0.696,0.777
NCI-H522,0.595,0.622,0.585,0.543,0.645,0.607,0.764,0.688,0.796,0.762,0.822,,,,,,0.723,0.818,0.698,0.692
A549,,0.142,0.149,0.137,0.0431,,,,,,,0.585,0.566,0.532,0.572,0.436,,,,
NCI-H1650,0.365,0.35,0.222,0.126,0.11,0.661,0.569,0.29,,,,0.728,0.493,0.68,0.564,0.402,0.514,0.595,,
ABC-1,0.223,0.161,0.206,0.188,0.156,,,,0.644,0.701,0.873,0.822,0.766,0.787,0.709,0.538,,,0.793,0.716

# From the supplement of paper PMC10307832
